Results from ChEMBL document CHEMBL5532667 (J Med Chem, 2024).
Converted amounts (≈) assume the structure as drawn. Each block holds one compound with its values, some of them ahead of it.

Key:
[1] = target: T1, Progesterone receptor (Homo sapiens, UniProt P06401); assay type: cell-based, HEK293T
T1 sequence (P06401 whole entry): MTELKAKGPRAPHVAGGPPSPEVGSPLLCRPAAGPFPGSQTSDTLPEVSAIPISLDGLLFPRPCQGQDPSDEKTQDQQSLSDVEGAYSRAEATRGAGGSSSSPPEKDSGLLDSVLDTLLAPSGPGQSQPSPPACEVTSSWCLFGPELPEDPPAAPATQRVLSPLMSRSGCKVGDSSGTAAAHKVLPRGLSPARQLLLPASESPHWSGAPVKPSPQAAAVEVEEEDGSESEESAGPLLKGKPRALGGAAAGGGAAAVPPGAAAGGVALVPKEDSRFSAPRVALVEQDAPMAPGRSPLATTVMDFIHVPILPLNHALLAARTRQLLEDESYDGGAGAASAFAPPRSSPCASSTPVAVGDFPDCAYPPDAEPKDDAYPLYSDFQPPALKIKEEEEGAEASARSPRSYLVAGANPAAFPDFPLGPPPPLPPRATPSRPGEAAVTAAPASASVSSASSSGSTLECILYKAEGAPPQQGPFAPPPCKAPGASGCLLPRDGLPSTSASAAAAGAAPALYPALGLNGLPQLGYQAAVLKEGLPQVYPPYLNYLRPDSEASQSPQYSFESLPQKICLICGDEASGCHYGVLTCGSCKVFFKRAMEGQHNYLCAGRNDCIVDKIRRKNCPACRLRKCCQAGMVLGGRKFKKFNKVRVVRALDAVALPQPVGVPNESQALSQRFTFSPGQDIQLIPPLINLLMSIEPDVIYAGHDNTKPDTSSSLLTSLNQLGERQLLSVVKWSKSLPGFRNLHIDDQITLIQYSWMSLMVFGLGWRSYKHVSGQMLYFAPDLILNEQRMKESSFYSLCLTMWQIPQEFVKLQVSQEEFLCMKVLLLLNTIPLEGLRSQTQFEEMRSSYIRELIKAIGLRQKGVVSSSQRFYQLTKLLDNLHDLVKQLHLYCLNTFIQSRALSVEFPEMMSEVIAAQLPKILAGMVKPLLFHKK
Description: Antagonist activity at PR in HEK293T cells assessed as reduction in transcriptional activity incubated for 24 hrs by britelite plus reagent based plate reader assay

[2] = target: T2, Thyroid hormone receptor beta (Homo sapiens, UniProt P10828); assay type: cell-based, HEK293T
T2 sequence (P10828 whole entry): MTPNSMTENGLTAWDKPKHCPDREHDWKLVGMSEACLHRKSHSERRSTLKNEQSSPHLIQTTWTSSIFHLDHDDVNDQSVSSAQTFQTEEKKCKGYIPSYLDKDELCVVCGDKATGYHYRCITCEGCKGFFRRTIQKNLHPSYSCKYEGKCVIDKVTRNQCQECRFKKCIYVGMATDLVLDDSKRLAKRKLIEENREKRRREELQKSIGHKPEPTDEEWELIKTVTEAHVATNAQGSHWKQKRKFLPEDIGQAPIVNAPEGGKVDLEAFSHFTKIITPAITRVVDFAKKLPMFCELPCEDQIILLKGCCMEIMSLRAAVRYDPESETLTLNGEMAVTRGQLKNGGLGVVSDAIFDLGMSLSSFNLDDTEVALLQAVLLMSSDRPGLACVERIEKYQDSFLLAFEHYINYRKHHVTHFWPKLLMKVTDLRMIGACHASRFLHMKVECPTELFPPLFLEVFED
Description: Antagonist activity at TRbeta in HEK293T cells assessed as reduction in transcriptional activity incubated for 24 hrs by britelite plus reagent based plate reader assay

[3] = in vivo; details: C57BL/6, mouse, brain, iv, 1 mg/kg
[4] = in vivo; details: C57BL/6, mouse, iv, 1 mg/kg
[5] = in vivo; details: C57BL/6, mouse, iv, 1 mg/kg; remark: listed apart in the source
[6] = in vivo; details: C57BL/6, mouse, iv, 1 mg/kg; remark: listed apart in the source
[7] = in vivo; details: C57BL/6, mouse, iv, 1 mg/kg; remark: listed apart in the source
[8] = in vivo; details: C57BL/6, mouse, iv, 1 mg/kg; remark: listed apart in the source
[9] = in vitro; details: mouse, nih3t3
Description: Dark toxicity against BALB/c mouse 3T3 cells assessed as reduction in cell viability incubated for 1 hr by neutral red dye based assay

[10] = system: NIH3T3; experiment: cells; details: Mus musculus, BALB/c, NIH3T3, light or radiation study
Description: Phototoxicity against BALB/c mouse 3T3 cells assessed as reduction in cell viability preincubated for 1 hr followed by 5 J/cm2 irradiation and subsequent replacement of medium without compound and measured after 24 hrs by neutral red dye based assay

- IC50 [1]: 3.5 µM
- IC50 [2]: > 10 µM
Structure (SMILES): C[C@](O)(CN1CC2CC(C1)N2c1ccc(C#N)cc1)C(=O)Nc1cnc(C#N)c(C(F)(F)F)c1

Structure (SMILES): C[C@](O)(CN1CC2CC(C1)N2c1ccc(C#N)cc1F)C(=O)Nc1cnc(C#N)c(C(F)(F)F)c1
- Kp at 24 h [3]: 0.45
- AUC(0-t) at 24 h [4]: 444 ng·h/mL
- half-life at 24 h [5]: 54.6 min
- Vd at 24 h [6]: 1.35 L/kg
- clearance at 24 h [7]: 37.8 mL/min/kg
- C0 at 24 h [8]: 1060 ng/mL

- IC50 at 1 h [9]: 45.1 µg/mL (≈ 141 µM)
Structure (SMILES): CN(C)CCCN1c2ccccc2Sc2ccc(Cl)cc21 [CHLORPROMAZINE]
- IC50 [10]: 0.93 µg/mL (≈ 2.92 µM)
